The values below come from publication PMC8524670 (Pharmacology Research & Perspectives, 2021).

The EC50 is the concentration at which the effect is half-maximal.

The target in one data set is T1, OATP1B3 (Homo sapiens, UniProt Q9NPD5).
T1 sequence (Q9NPD5 1-702): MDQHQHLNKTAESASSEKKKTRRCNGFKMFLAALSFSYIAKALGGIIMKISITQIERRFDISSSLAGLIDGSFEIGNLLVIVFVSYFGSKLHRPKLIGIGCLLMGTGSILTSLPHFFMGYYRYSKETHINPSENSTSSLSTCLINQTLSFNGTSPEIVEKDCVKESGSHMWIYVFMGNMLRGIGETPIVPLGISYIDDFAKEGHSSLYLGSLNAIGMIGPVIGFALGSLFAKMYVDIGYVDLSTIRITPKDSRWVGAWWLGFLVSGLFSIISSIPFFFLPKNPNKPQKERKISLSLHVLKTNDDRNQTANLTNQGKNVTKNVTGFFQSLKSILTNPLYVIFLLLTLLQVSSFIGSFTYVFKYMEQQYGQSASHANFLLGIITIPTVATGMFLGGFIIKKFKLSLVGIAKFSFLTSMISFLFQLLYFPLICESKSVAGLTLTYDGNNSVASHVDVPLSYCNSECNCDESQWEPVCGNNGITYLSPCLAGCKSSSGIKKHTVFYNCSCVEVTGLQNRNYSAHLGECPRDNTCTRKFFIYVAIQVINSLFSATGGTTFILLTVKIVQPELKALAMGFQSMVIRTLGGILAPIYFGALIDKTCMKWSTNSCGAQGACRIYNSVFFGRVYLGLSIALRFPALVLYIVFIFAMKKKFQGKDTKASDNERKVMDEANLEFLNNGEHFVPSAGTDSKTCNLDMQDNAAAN
The experiment in a line: SLC transportation assay in HEK293 cells. It counts as in vitro ADME. Conditions: uptake ratios <2 at 0.1, 0.3, 5 µM.

The target of a further data set is T2, OATP1B1 (Homo sapiens, UniProt Q9Y6L6).
T2 sequence (Q9Y6L6 1-691): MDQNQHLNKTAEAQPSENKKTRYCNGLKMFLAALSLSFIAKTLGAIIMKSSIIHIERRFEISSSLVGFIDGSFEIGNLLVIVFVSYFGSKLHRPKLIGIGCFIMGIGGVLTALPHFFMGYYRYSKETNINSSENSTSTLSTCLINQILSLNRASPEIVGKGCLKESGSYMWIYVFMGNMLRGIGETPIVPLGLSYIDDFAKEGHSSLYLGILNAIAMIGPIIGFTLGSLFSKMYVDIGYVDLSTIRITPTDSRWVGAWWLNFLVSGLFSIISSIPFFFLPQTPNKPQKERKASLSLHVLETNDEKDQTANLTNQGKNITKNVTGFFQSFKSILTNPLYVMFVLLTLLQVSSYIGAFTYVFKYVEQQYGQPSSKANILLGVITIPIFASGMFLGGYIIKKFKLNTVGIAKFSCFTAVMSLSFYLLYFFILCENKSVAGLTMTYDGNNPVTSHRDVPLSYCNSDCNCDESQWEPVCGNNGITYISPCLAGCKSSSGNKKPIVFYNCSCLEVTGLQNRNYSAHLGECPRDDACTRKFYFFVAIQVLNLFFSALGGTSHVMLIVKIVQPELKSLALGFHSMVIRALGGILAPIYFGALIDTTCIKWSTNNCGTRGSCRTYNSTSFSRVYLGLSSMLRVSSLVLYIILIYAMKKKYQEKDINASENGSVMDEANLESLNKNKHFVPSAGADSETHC
The experiment in a line: SLC inhibition assay in HEK293 cells. Conditions: 0.05–5 µM. It counts as in vitro ADME.

In a further data set the test system is CYP1A2. The experiment in a line: in vitro. Conditions: human.
A further data set concerns the target T3, CYP2B6 (Homo sapiens, UniProt P20813).
T3 sequence (P20813 1-491): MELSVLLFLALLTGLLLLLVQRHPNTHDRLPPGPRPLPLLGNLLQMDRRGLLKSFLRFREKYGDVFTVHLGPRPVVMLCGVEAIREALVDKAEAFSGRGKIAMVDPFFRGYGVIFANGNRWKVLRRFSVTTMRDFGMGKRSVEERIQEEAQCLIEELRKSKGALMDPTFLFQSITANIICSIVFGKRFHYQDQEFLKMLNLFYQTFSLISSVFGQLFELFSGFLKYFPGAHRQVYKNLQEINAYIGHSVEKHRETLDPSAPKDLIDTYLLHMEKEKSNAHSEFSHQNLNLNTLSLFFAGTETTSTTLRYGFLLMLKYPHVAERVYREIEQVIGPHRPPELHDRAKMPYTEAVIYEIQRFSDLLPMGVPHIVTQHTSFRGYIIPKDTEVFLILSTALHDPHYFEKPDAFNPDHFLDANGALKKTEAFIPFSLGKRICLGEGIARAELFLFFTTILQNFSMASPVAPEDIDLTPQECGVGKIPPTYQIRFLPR
Kind of data set: Time-dependent CYP inhibition in HLMs. Conditions: 10 µM zanubrutinib, 30 min pre-incubation with HLMs and NADPH.

The target in another data set is T4, CYP2C8 (Homo sapiens, UniProt P10632).
T4 sequence (P10632 1-490): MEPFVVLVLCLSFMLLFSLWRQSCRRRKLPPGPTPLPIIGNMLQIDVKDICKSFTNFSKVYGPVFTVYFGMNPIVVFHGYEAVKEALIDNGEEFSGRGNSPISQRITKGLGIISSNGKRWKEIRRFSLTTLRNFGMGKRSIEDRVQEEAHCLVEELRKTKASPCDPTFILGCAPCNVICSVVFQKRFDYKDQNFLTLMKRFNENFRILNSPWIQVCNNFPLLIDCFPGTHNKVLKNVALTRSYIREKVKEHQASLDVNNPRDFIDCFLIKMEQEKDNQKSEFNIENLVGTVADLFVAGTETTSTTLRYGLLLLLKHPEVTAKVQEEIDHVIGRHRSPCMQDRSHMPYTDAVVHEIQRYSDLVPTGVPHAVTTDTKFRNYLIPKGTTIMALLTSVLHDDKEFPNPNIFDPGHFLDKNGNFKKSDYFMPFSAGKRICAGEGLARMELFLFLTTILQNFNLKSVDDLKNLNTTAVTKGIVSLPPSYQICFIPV
Kind of data set: Time-dependent CYP inhibition in HLMs. Conditions: 10 µM zanubrutinib, 30 min pre-incubation with HLMs and NADPH.

The test system of a further data set is CYP3A. Kind of data set: Time-dependent CYP inhibition in HLMs. Conditions: 10 µM zanubrutinib, 30 min pre-incubation with HLMs and NADPH.
A short description of data set [1]: CYP phenotyping in HLMs with chemical inhibitors. Conditions: 1 μM.

`C=CC(=O)N1CCC([C@@H]2CCNc3c(C(N)=O)c(-c4ccc(Oc5ccccc5)cc4)nn32)CC1` [zanubrutinib]: on OATP1B3, the Substrate status result was “unlikely to be a substrate”. Moreover, the “Inhibition of uptake activity” value at OATP1B1 is on record as “not inhibited”. In addition, in the data set on CYP1A2, a half-maximal effect (EC50 at 2 days) was put at 290 nM. In addition, the “Percent loss of enzymatic activity” value on CYP2B6 came out at 15.5%; at CYP2C8, 21.9%; with CYP3A, 19.2%. Also, the Zanubrutinib remaining in data set [1] (30-min incubation with HLMs + CYP3A inhibitor ketoconazole 1 µM) came out at 98.9%; in data set [1] (30-min incubation with HLMs, no inhibitor), 32.8%.
